# Data taken from US4728732A, “C-3'acylsulfonamido cephalosporin analogs” (American Home Products Corporation, priority 1985, dated 1988).
# Assays:
# Format in all cases: cell-based
# [1] = tested on: Serratia marcescens ATCC 13880; experiment: MIC, procedure A (two-fold dilutions in broth, Microtiter plate); details: ATCC13880
# Procedure: (§1) The compounds of the invention are tested for their antibacterial activity. The test can be carried out in two ways:
# (§2) A. The organisms used in the test comprise the following:
# (§3) Staphylococcus aureus (penicillin-sensitive and resistant), Pseudomonas aeruginosa, Escherichia coli, […] pneumoniae, Bordetella bronchiseptica, Proteus vulgaris, P. mirabilis, Acinetobacter calcoaceticus.
# (§4) Test organisms may be added or deleted in order to reflect current clinical patterns of antibiotic susceptibility or shifts in pathogenic potential.
# (§5) Stock solution of appropriate medium (e.g. Mueller-Hinton Broth) is sterilized. Starting at a predetermined concentration (e.g. 250 μg/ml), two-fold dilutions are made with the Dynatech Automatic Diluter in a Microtiter plate of 8 rows of 12 wells each in which 11 wells in each row contain 50 μl of medium (e.g. Mueller-Hinton Broth) and the 12th well contains in 100 μl an aliquot of the compound to be tested. The diluted plates are inoculated using the Dynatech Automatic Inoculator which delivers the final inoculum (e.g. 10^5 cfu/ml of a seven-hour culture which has been incubated at 35° C.).
# (§6) Plates are sealed with tape and incubated (e.g. 18 hours at 35° C.).
# [2] = tested on: Enterobacter cloacae ATCC 13047; experiment: as above; details: ATCC13047
# Procedure: as §1, §2, §3, §4, §5, §6
# [3] = tested on: Staphylococcus aureus ATCC 29213; experiment: as above; details: ATCC29213
# Procedure: as §1, §2, §3, §4, §5, §6
# [4] = tested on: Proteus vulgaris A 84354 1; experiment: as above; details: A843541
# Procedure: as §1, §2, §3, §4, §5, §6
# [5] = tested on: Pseudomonas aeruginosa ATCC 27853; experiment: as above; details: ATCC27853
# Procedure: as §1, §2, §3, §4, §5, §6
# [6] = tested on: Klebsiella pneunomiae KL-1; experiment: as above; details: KL1
# Procedure: as §1, §2, §3, §4, §5, §6
# [7] = tested on: Escherichia coli ATCC 25922; experiment: as above; details: ATCC25922
# Procedure: as §1, §2, §3, §4, §5, §6
# [8] = tested on: Streptococcus faecalis ATCC 29212; experiment: as above; details: Enterococcus faecalis, ATCC29212
# Procedure: as §1, §2, §3, §4, §5, §6
# [9] = tested on: Serratia marcescens ATCC 13880; experiment: MIC, procedure B (agar, Steers replicating device); details: ATCC13880
# Procedure: as §1
# (§7) B. The organisms used in the test comprise the following:
# as §3, §4
# (§8) Organisms are normally grown for 18 hours in Brain Heart Infusion at 35° C. Cultures are adjusted with saline to MacFarland No. 1.5 standard prior to use.
# (§9) Stock concentrations (e.g […] or units per ml) are prepared in a suitable vehicle. Two-fold dilutions are made. One ml quantities of each dilution are incorporated in 9 ml of the appropriate agar (e.g. Seed) in sterile Petri plates. The hardened surface is inoculated with test organisms by use of a Steers replicating device. The plates are incubated (e.g. 18 hours at 35° C.) and activity is determined.
# [10] = tested on: Enterobacter cloacae ATCC 13047; experiment: MIC, procedure B (agar, Steers replicating device); details: ATCC13047
# Procedure: as §1, §7, §3, §4, §8, §9
# [11] = tested on: Staphylococcus aureus ATCC 29213; experiment: MIC, procedure B (agar, Steers replicating device); details: ATCC29213
# Procedure: as §1, §7, §3, §4, §8, §9
# [12] = tested on: Proteus vulgaris A 84354 1; experiment: MIC, procedure B (agar, Steers replicating device); details: A843541
# Procedure: as §1, §7, §3, §4, §8, §9
# [13] = tested on: Pseudomonas aeruginosa ATCC 27853; experiment: MIC, procedure B (agar, Steers replicating device); details: ATCC27853
# Procedure: as §1, §7, §3, §4, §8, §9
# [14] = tested on: Klebsiella pneunomiae KL-1; experiment: MIC, procedure B (agar, Steers replicating device); details: KL1
# Procedure: as §1, §7, §3, §4, §8, §9
# [15] = tested on: Escherichia coli ATCC 25922; experiment: MIC, procedure B (agar, Steers replicating device); details: ATCC25922
# Procedure: as §1, §7, §3, §4, §8, §9
# [16] = tested on: Streptococcus faecalis ATCC 29212; experiment: MIC, procedure B (agar, Steers replicating device); details: Enterococcus faecalis, ATCC29212
# Procedure: as §1, §7, §3, §4, §8, §9
SMILES,MIC [1],MIC [2],MIC [3],MIC [4],MIC [5],MIC [6],MIC [7],MIC [8],MIC [9],MIC [10],MIC [11],MIC [12],MIC [13],MIC [14],MIC [15],MIC [16]
CO/N=C(\C(=O)N[C@@H]1C(=O)N2C(C(=O)OC(C)(C)C)=C(CN3C(=O)c4cscc4S3(=O)=O)CS[C@H]12)c1csc(N)n1 [1 B.],32 µg/mL,64 µg/mL,32 µg/mL,4 µg/mL,128 µg/mL,4 µg/mL,8 µg/mL,256 µg/mL,–,–,–,–,–,–,–,–
CO/N=C(\C(=O)N[C@@H]1C(=O)N2C(C(=O)OC(C)(C)C)=C(CN3C(=O)c4ccccc4S3(=O)=O)CS[C@H]12)c1csc(N)n1 [2 B.],8 µg/mL,16 µg/mL,8 µg/mL,1 µg/mL,64 µg/mL,1 µg/mL,2 µg/mL,16 µg/mL,–,–,–,–,–,–,–,–
CO/N=C(\C(=O)N[C@@H]1C(=O)N2C(C(=O)O)=C(CN3C(=O)c4cccnc4S3(=O)=O)CS[C@H]12)c1csc(N)n1 [3 C.],–,–,–,–,–,–,–,–,2 µg/mL,16 µg/mL,32 µg/mL,2 µg/mL,128 µg/mL,1 µg/mL,2 µg/mL,128 µg/mL
CO/N=C(\C(=O)N[C@@H]1C(=O)N2C(C(=O)O)=C(CN3C(=O)c4ccccc4S3(=O)=O)CS[C@H]12)c1csc(N)n1 [2 C.],–,–,–,–,–,–,–,–,4 µg/mL,8 µg/mL,4 µg/mL,0.5 µg/mL,32 µg/mL,0.5 µg/mL,1 µg/mL,8 µg/mL
CO/N=C(\C(=O)N[C@@H]1C(=O)N2C(C(=O)O)=C(CN3C(=O)c4cscc4S3(=O)=O)CS[C@H]12)c1csc(N)n1 [1 C.],–,–,–,–,–,–,–,–,2 µg/mL,4 µg/mL,4 µg/mL,0.5 µg/mL,64 µg/mL,1 µg/mL,2 µg/mL,8 µg/mL
CO/N=C(\C(=O)N[C@@H]1C(=O)N2C(C(=O)OC(C)(C)C)=C(CN3C(=O)c4cccnc4S3(=O)=O)CS[C@H]12)c1csc(N)n1 [3 B.],8 µg/mL,128 µg/mL,128 µg/mL,8 µg/mL,256 µg/mL,2 µg/mL,4 µg/mL,256 µg/mL,–,–,–,–,–,–,–,–
